Experimental data taken from PubChem BioAssay (NCI).
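Briefly, cells in 96-well plates were exposed to five compound concentrations for 48 h, and endpoints were estimated by linear interpolation. The concentration for 50% growth inhibition is given as GI50. TGI: concentration producing complete growth inhibition.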

Columns and labels:
Assay in all cases: growth of human tumour cells (NCI), 48 h; in the data active means GI50 below about 0.43 µM; inactive means the rest
786-0 renal = test system: 786-0 renal
A498 renal = test system: A498 renal
A549 NSCLC = test system: A549 NSCLC
ACHN renal = test system: ACHN renal
BT-549 breast = test system: BT-549 breast
CAKI-1 renal = test system: CAKI-1 renal
CCRF-CEM leukemia = test system: CCRF-CEM leukemia
COLO 205 colon = test system: COLO 205 colon
DU-145 prostate = test system: DU-145 prostate
EKVX NSCLC = test system: EKVX NSCLC
HCC-2998 colon = test system: HCC-2998 colon
HCT-116 colon = test system: HCT-116 colon
HCT-15 colon = test system: HCT-15 colon
HL-60(TB) leukemia = test system: HL-60(TB) leukemia
HOP-62 NSCLC = test system: HOP-62 NSCLC
HOP-92 NSCLC = test system: HOP-92 NSCLC
HS 578T breast = test system: HS 578T breast
HT29 colon = test system: HT29 colon
IGROV1 ovarian = test system: IGROV1 ovarian
K-562 leukemia = test system: K-562 leukemia
KM12 colon = test system: KM12 colon
LOX IMVI melanoma = test system: LOX IMVI melanoma
M14 melanoma = test system: M14 melanoma
MALME-3M melanoma = test system: MALME-3M melanoma
MCF7 breast = test system: MCF7 breast
MDA-MB-231 breast = test system: MDA-MB-231 breast
MDA-MB-435 = test system: MDA-MB-435
MOLT-4 leukemia = test system: MOLT-4 leukemia
NCI-H226 lung = test system: NCI-H226 lung
NCI-H23 lung = test system: NCI-H23 lung
NCI-H460 lung = test system: NCI-H460 lung
NCI-H522 lung = test system: NCI-H522 lung
NCI/ADR-RES ovarian = test system: NCI/ADR-RES ovarian
OVCAR-3 ovarian = test system: OVCAR-3 ovarian
OVCAR-4 ovarian = test system: OVCAR-4 ovarian
OVCAR-5 ovarian = test system: OVCAR-5 ovarian
OVCAR-8 ovarian = test system: OVCAR-8 ovarian
PC-3 prostate = test system: PC-3 prostate
RPMI-8226 leukemia = test system: RPMI-8226 leukemia
RXF 393 renal = test system: RXF 393 renal
SF-268 CNS = test system: SF-268 CNS
SF-295 CNS = test system: SF-295 CNS
SF-539 CNS = test system: SF-539 CNS
SK-MEL-2 melanoma = test system: SK-MEL-2 melanoma
SK-MEL-28 melanoma = test system: SK-MEL-28 melanoma
SK-MEL-5 melanoma = test system: SK-MEL-5 melanoma
SK-OV-3 ovarian = test system: SK-OV-3 ovarian
SN12C renal = test system: SN12C renal
SNB-19 CNS = test system: SNB-19 CNS
SNB-75 CNS = test system: SNB-75 CNS
SR leukemia = test system: SR leukemia
SW-620 colon = test system: SW-620 colon
T-47D breast = test system: T-47D breast
TK-10 renal = test system: TK-10 renal
U251 CNS = test system: U251 CNS
UACC-257 melanoma = test system: UACC-257 melanoma
UACC-62 melanoma = test system: UACC-62 melanoma
UO-31 renal = test system: UO-31 renal
MDA-N = test system: MDA-N

COC(=O)Nc1nc2ccc(Oc3ccc(NC(=O)Nc4cccc(C(=O)O)c4)cc3)cc2[nH]1
> 19 µM: TGI (NCI-H522 lung)
16.3 µM: TGI (SK-OV-3 ovarian)
> 17.4 µM: TGI (NCI/ADR-RES ovarian)
6.03 µM: TGI (MDA-MB-435)
24.5 µM: TGI (HS 578T breast)
> 25 µM: TGI (786-0 renal) | TGI (A498 renal) | TGI (A549 NSCLC) | TGI (ACHN renal) | TGI (BT-549 breast) | TGI (CAKI-1 renal) | TGI (CCRF-CEM leukemia) | TGI (DU-145 prostate) | TGI (EKVX NSCLC) | TGI (HCC-2998 colon) | TGI (HCT-116 colon) | TGI (HCT-15 colon) | TGI (HOP-92 NSCLC) | TGI (HT29 colon) | TGI (IGROV1 ovarian) | TGI (K-562 leukemia) | TGI (LOX IMVI melanoma) | TGI (M14 melanoma) | TGI (MALME-3M melanoma) | TGI (MDA-MB-231 breast) | TGI (MOLT-4 leukemia) | TGI (NCI-H226 lung) | TGI (NCI-H23 lung) | TGI (NCI-H460 lung) | TGI (OVCAR-4 ovarian) | TGI (OVCAR-5 ovarian) | TGI (OVCAR-8 ovarian) | TGI (PC-3 prostate) | TGI (RPMI-8226 leukemia) | TGI (SF-268 CNS) | TGI (SK-MEL-2 melanoma) | TGI (SK-MEL-28 melanoma) | TGI (SN12C renal) | TGI (SNB-19 CNS) | TGI (SNB-75 CNS) | TGI (SR leukemia) | TGI (SW-620 colon) | TGI (T-47D breast) | TGI (TK-10 renal) | TGI (U251 CNS) | TGI (UACC-257 melanoma) | TGI (UACC-62 melanoma) | TGI (UO-31 renal)
> 21.7 µM: TGI (SF-295 CNS)
10.9 µM: TGI (RXF 393 renal)
> 16.5 µM: TGI (COLO 205 colon)
> 21.2 µM: TGI (KM12 colon)
inactive: GI50 (786-0 renal) 10.5 µM | GI50 (A498 renal) 4.98 µM | GI50 (A549 NSCLC) 10.5 µM | GI50 (ACHN renal) 16.9 µM | GI50 (BT-549 breast) 14.8 µM | GI50 (CAKI-1 renal) > 23.8 µM | GI50 (CCRF-CEM leukemia) 7.02 µM | GI50 (COLO 205 colon) 6.21 µM | GI50 (DU-145 prostate) 8.07 µM | GI50 (EKVX NSCLC) > 23 µM | GI50 (HCC-2998 colon) 8.44 µM | GI50 (HCT-116 colon) 8.82 µM | GI50 (HCT-15 colon) 6.49 µM | GI50 (HL-60(TB) leukemia) 6.1 µM | GI50 (HOP-62 NSCLC) 7.09 µM | GI50 (HOP-92 NSCLC) > 25 µM | GI50 (HS 578T breast) 4.28 µM | GI50 (HT29 colon) 7.35 µM | GI50 (IGROV1 ovarian) 12.7 µM | GI50 (K-562 leukemia) 6.51 µM | GI50 (KM12 colon) 5.26 µM | GI50 (LOX IMVI melanoma) > 14.6 µM | GI50 (M14 melanoma) 6.75 µM | GI50 (MALME-3M melanoma) 7.92 µM | GI50 (MCF7 breast) 4.73 µM | GI50 (MDA-MB-231 breast) 11.5 µM | GI50 (MDA-MB-435) 1.32 µM | GI50 (MOLT-4 leukemia) 9.99 µM | GI50 (NCI-H226 lung) 5.2 µM | GI50 (NCI-H23 lung) 9.64 µM | GI50 (NCI-H460 lung) 7.21 µM | GI50 (NCI-H522 lung) 4 µM | GI50 (NCI/ADR-RES ovarian) 6.13 µM | GI50 (OVCAR-3 ovarian) 4.41 µM | GI50 (OVCAR-4 ovarian) 9.77 µM | GI50 (OVCAR-5 ovarian) 12 µM | GI50 (OVCAR-8 ovarian) 9.4 µM | GI50 (PC-3 prostate) 8.44 µM | GI50 (RPMI-8226 leukemia) 8.03 µM | GI50 (RXF 393 renal) 3.37 µM | GI50 (SF-268 CNS) 11.3 µM | GI50 (SF-295 CNS) 5.61 µM | GI50 (SF-539 CNS) 4.95 µM | GI50 (SK-MEL-2 melanoma) 9.24 µM | GI50 (SK-MEL-28 melanoma) 10 µM | GI50 (SK-MEL-5 melanoma) 3.24 µM | GI50 (SK-OV-3 ovarian) 5.53 µM | GI50 (SN12C renal) 11.9 µM | GI50 (SNB-19 CNS) 9.36 µM | GI50 (SNB-75 CNS) 9.98 µM | GI50 (SR leukemia) 2.41 µM | GI50 (SW-620 colon) 7.43 µM | GI50 (T-47D breast) > 14.2 µM | GI50 (TK-10 renal) > 23.1 µM | GI50 (U251 CNS) 7.35 µM | GI50 (UACC-257 melanoma) > 22.2 µM | GI50 (UACC-62 melanoma) 5.35 µM | GI50 (UO-31 renal) 15.7 µM
> 22 µM: TGI (HOP-62 NSCLC)
10.5 µM: TGI (OVCAR-3 ovarian)
> 20.9 µM: TGI (SF-539 CNS)
17.4 µM: TGI (HL-60(TB) leukemia)
> 21 µM: TGI (SK-MEL-5 melanoma)
24.3 µM: TGI (MCF7 breast)

CC1CN=C(Nc2ccc(F)cc2F)S1 (configuration not stated)
> 100 µM: TGI (786-0 renal) | TGI (A498 renal) | TGI (A549 NSCLC) | TGI (ACHN renal) | TGI (CAKI-1 renal) | TGI (CCRF-CEM leukemia) | TGI (COLO 205 colon) | TGI (DU-145 prostate) | TGI (EKVX NSCLC) | TGI (HCC-2998 colon) | TGI (HCT-116 colon) | TGI (HCT-15 colon) | TGI (HL-60(TB) leukemia) | TGI (HOP-62 NSCLC) | TGI (HOP-92 NSCLC) | TGI (HS 578T breast) | TGI (IGROV1 ovarian) | TGI (K-562 leukemia) | TGI (KM12 colon) | TGI (LOX IMVI melanoma) | TGI (MALME-3M melanoma) | TGI (MCF7 breast) | TGI (MDA-MB-231 breast) | TGI (MDA-N) | TGI (MOLT-4 leukemia) | TGI (NCI-H23 lung) | TGI (NCI-H460 lung) | TGI (NCI/ADR-RES ovarian) | TGI (OVCAR-3 ovarian) | TGI (OVCAR-4 ovarian) | TGI (OVCAR-5 ovarian) | TGI (OVCAR-8 ovarian) | TGI (PC-3 prostate) | TGI (RPMI-8226 leukemia) | TGI (SF-268 CNS) | TGI (SF-295 CNS) | TGI (SF-539 CNS) | TGI (SK-MEL-2 melanoma) | TGI (SK-MEL-28 melanoma) | TGI (SK-MEL-5 melanoma) | TGI (SK-OV-3 ovarian) | TGI (SN12C renal) | TGI (SNB-19 CNS) | TGI (SNB-75 CNS) | TGI (SR leukemia) | TGI (SW-620 colon) | TGI (T-47D breast) | TGI (TK-10 renal) | TGI (U251 CNS) | TGI (UACC-257 melanoma) | TGI (UO-31 renal)
